Data as given in patent publication US20150225454A1, “TETRABRANCHED PEPTIDES AND ANALOGUES AS A NEW CLASS OF ANTIMICROBIALS AND THEIR PREPARATION THEREOF” (priority 2012, published 2015).
Values after ≈ are worked out from the molar mass of the structure shown. “Also recorded” adds a separate entry of the source. Where two headings read alike, the source gives them in different places. One block for each compound: values may come before it. Where a SMILES comes first, the peptide text is derived from it. Bridges are numbered along the chain shown (N, C = ends). Roman numbers before positions name the chains, in order.

Experiments:
C. albicans = assay: microbe, parasite or virus in culture; format: cell-based
Experimental: The yeast strains were cultivated and suspended in Sabouraud's Dextrose (SD) broth diluted at one sixth at a starting OD600=˜0.08 in a flat-bottomed microtitre plate. A serial dilution of peptide in the same broth was mixed with the inoculum to give a final peptide concentration of 0.4-22 μM. The antifungal activity was assessed by monitoring the OD600 in cycles of 30 minutes and an orbital shaking at 100 rpm using an Infinite M200 microplate reader (Tecan Group Ltd., Switzerland) for 24/48 h at 37° C. Cultures without peptides were used as positive controls and broth alone or with 22 μM peptide served as negative controls. The minimum concentration required for complete inhibition was assessed by both visible observations as well as by measuring the OD600 and taken as the MIC. Each experiment was repeated in triplicates.

[1] = test system: C. albicans (ATCC 10231 and DF2672R); format: cell-based
Experimental: The time-kill kinetics was measured for two strains of C. albicans (ATCC 10231 and DF2672R). The cultures were grown overnight in SD broth and the cell concentration was adjusted to 10^5-10^6 CFU/ml with phosphate buffer. The peptide or antifungals were added to the individual cultures. […] The test solution was incubated at 37° C. with constant shaking. 100 μL of the suspension is withdrawn at predetermined time points, serially diluted (10^2 or 10^3 fold) and poured into the SDA plate. The plate was incubated for 48 h at 37° C. for colony counting. The data were expressed in terms of % cell viability relative to the positive control.

rabbit red blood cells = format: cell-based
Experimental: Haemolytic activity of peptides and antifungal drugs were determined against rabbit red blood cells (Oren et al., 1997). Briefly, serial dilution of peptides/antifungals in PBS was mixed with rRBC (final concentration 4% v/v), incubated at 37° C. for 1 h and centrifuged at 3000 rpm for 10 minutes. The release of hemoglobin in the supernatant was monitored by measuring the hemoglobin absorbance at 576 nm. The readings from cell suspension in PBS (without any additives) or 1% Triton-X100 were used as 0% or 100% haemolysis.

IOBA-NHC cells = format: cell-based, human; settings: 24 h incubation; read-out: EC50 (concentration that reduces the viable cells by 50%)
Experimental: IOBA-NHC cells were cultured under standard conditions (humidified atmosphere of 5% CO2 at 37° C.) in DMEM/F12 supplemented with 1 μg/ml bovine pancreas insulin, 2 ng/ml mouse epidermal growth factor, 0.1 μg/ml cholera toxin, […] hydrocortisone, 10% fetal bovine serum (FBS), 50 UI/ml penicillin, and 50 UI/ml streptomycin. Cells from passages 50-80 were used in all experiments. Every day, normal culture development was observed by phase-contrast microscopy. Cells were removed by gentle trypsin incubation at confluence and counted. They were seeded into 96 well culture plates (Corning, Schiphol-Rijk, The Netherlands) for microtitration analysis of flow cytotoxicity assay (˜10,000 cells/well). Cultures were kept at 37° C. for 24 h. Subconfluent cells (culture surface covering nearly 70%) were then exposed to various peptide concentrations (0.22-225 μM). Cytotoxicity was measured periodically using MultiTox-Fluor Multiplex assay kit (Promega, Wis., USA) by measuring the AFC fluorescence (λex=485 and λem=520 nm).

fungi = settings: cited from earlier work
[2] = temperature or pH; cited from earlier work
[3] = cited from earlier work
[4] = Calcein release from fungal model membrane SUVs; settings: peptide:lipid ratio 1:30 and 1:15
Experimental: For the preparation of PC/PE/PI or PS/Erg SUV, the lipids were dissolved in chloroform/methanol (2:1, v/v) in a glass tube. Ergosterol was dissolved in same solvent and added to lipid mixture to make final ergosterol content of 15 wt %. The Lipid-ergosterol mixture was dried using nitrogen gas to form lipid layer. The film was hydrated in a buffer containing 20 mM PBS (pH 7), vortexed and sonicated. Each cycle of sonication (5 sec, 40° C.) is followed by freezing in liquid nitrogen and thawing on a water bath kept at 37° C. The procedure was repeated 5-6 times until an optically clear dispersion appeared. The SUV was divided into two parts. To the first part 50 mM calcein was added and incubated for 1 h. The excess calcein was removed by injecting 100 μL of the calcein-loaded SUV's into a Ultrahydrogel™ 250 (7.8 mm×300 mm) column equilibrated with 20 mM PBS (pH 7.0) and eluted isochratically at a flow rate of 1 ml/min for 1.5 column volumes. The calcein-loaded liposomes were mixed with calcein-free liposome (1:1) to adjust final liposome concentration. Peptide concentration was added to obtain 1:30 or 1:15 peptide:liposome ratio. Changes in the fluorescence signal after addition of peptide or Triton X-100 was measured on a PTI spectrofluorometer, using an excitation wavelength of 480 nm and emission wavelength of 512 nm. The Percentage calcein released at each time point was calculated using the equation: […]
Similar protocol was followed for the preparation of PC/Cholesterol SUVs.

Structure (SMILES): C[C@@H]1[C@H](O)[C@@H](C)/C=C/C=C/C=C/C=C/C=C/C=C/C=C/[C@H](O[C@@H]2O[C@H](C)[C@@H](O)[C@H](N)[C@@H]2O)C[C@@H]2O[C@](O)(C[C@@H](O)C[C@@H](O)[C@H](O)CC[C@@H](O)C[C@@H](O)CC(=O)O[C@H]1C)C[C@H](O)[C@H]2C(=O)O [Amphotericin B, reference compound]
MIC for two C. albicans clinical isolates (C. albicans; two C. albicans clinical isolates): 1.4 µM | time to maximal effect ([1]; C. albicans DF2672R, 16×MIC): less than 8 h | HC50 (rabbit red blood cells): 59.4 ± 7.8 µM | EC50 (IOBA-NHC cells): 134 ± 16 µM | Activity (fungi): Broad spectrum; also recorded: Excellent agains Aspergilus & Candida

Structure (SMILES): CC[C@H](C)C[C@H](C)CCCCCCCCC(=O)N[C@H]1C[C@@H](O)[C@@H](NCCN)NC(=O)[C@@H]2[C@@H](O)CCN2C(=O)[C@H]([C@H](O)CCN)NC(=O)[C@H]([C@H](O)[C@@H](O)c2ccc(O)cc2)NC(=O)[C@@H]2C[C@@H](O)CN2C(=O)[C@H]([C@@H](C)O)NC1=O [Caspofungin]
Activity (fungi): Effective against Candida spp | Solubility [2]: 370 mg/L (≈ 0.338 mM)

Structure (SMILES): OC(Cn1cncn1)(Cn1cncn1)c1ccc(F)cc1F [Fluconazole]
Activity (fungi): Broad spectrum. Less effective against | Solubility [2]: 1 mg/L (≈ 0.00327 mM)

Structure (SMILES): CCC(C)n1ncn(-c2ccc(N3CCN(c4ccc(OCC5COC(Cn6cncn6)(c6ccc(Cl)cc6Cl)O5)cc4)CC3)cc2)c1=O (stereo not shown) [Itraconazole]
Solubility [2]: 0.00047 mg/L (≈ 6.66e-07 mM)

Structure (SMILES): CC(=O)N1CCN(c2ccc(OCC3COC(Cn4ccnc4)(c4ccc(Cl)cc4Cl)O3)cc2)CC1 (stereo not shown) [Ketaconazole]
Activity (fungi): Broad spectrum | Solubility [2]: 0.09 (25° C.) mg/L

Structure (SMILES): C[C@@H]1C/C=C/C=C/C=C/C=C/[C@H](O[C@@H]2O[C@H](C)[C@@H](O)[C@H](N)[C@@H]2O)C[C@@H]2O[C@](O)(C[C@@H](O)C[C@H]3O[C@@H]3/C=C/C(=O)O1)C[C@H](O)[C@H]2C(=O)O [Natamycin, reference compound]
MIC (C. albicans; Candida albicans, C. albicans DF2672R): 15 µM (≈ 9.99 µg/mL) | time required to achieve similar endpoints (4 log reduction) ([1]; ATCC strain, 16×MIC): 24 h | fungicidal action ([1]; C. albicans DF2672R, 2×MIC, 24 h exposure): no fungicidal action | HC50 (rabbit red blood cells; rabbit, 1 h): 139.6 ± 0.18 µM | Activity (fungi): Broad spectrum

Structure (SMILES): C[C@@H]1[C@H](O)[C@@H](C)/C=C/C=C/CC/C=C/C=C/C=C/C=C/C(O[C@H]2O[C@H](C)[C@@H](O)[C@H](N)[C@@H]2O)CC2O[C@](O)(CC(O)C(O)CCC(O)CC(O)CC(O)CC(=O)O[C@H]1C)CC(O)C2C(=O)O (stereo partly shown) [Nystatin]
Activity (fungi): Broad spectrum | Solubility [2]: 360 (24° C.) mg/L | logP [3]: 0.5

Structure (SMILES): Nc1nc(=O)[nH]cc1F [Peptide 5-FC, 5-FC]
Activity (fungi): Not active against filamentous fungii | Solubility [2]: 1.05e+06 mg/L (≈ 8130 mM) | logP [3]: −1.1

decrease in MIC compared to the monomer (C. albicans): ~14 ×
Structure (SMILES): CC(C)[C@H](NC(=O)[C@H](CCCCN)NC(=O)[C@H](CCCNC(=N)N)NC(=O)CNC(=O)[C@@H](N)CCCNC(=N)N)C(=O)N[C@H](C(=O)N[C@@H](CCCNC(=N)N)C(=O)N[C@@H](CCCNC(=N)N)C(=O)NCCCC[C@H](NC(=O)[C@H](CCCNC(=N)N)NC(=O)[C@H](CCCNC(=N)N)NC(=O)[C@@H](NC(=O)[C@@H](NC(=O)[C@H](CCCCN)NC(=O)[C@H](CCCNC(=N)N)NC(=O)CNC(=O)[C@@H](N)CCCNC(=N)N)C(C)C)C(C)C)C(=O)N[C@@H](CCCCN)C(=O)O)C(C)C [Peptide B2088, reference compound] (I: H-RGRKVVRRKK-OH / II: H-RGRKVVRR; amide I:9-II:C; N-terminus and C-terminus assumed)
calcein release [4]: decreased calcein release

increase in MIC on scrambling the sequence of B4010 (C. albicans): 2-4 fold
Structure (SMILES): CC(C)[C@H](N)C(=O)N[C@@H](CCCNC(=N)N)C(=O)NCC(=O)N[C@@H](CCCNC(=N)N)C(=O)N[C@H](C(=O)N[C@@H](CCCNC(=N)N)C(=O)N[C@@H](CCCCN)C(=O)N[C@@H](CCCNC(=N)N)C(=O)NCCCC[C@H](NC(=O)[C@H](CCCNC(=N)N)NC(=O)[C@H](CCCCN)NC(=O)[C@H](CCCNC(=N)N)NC(=O)[C@@H](NC(=O)[C@H](CCCNC(=N)N)NC(=O)CNC(=O)[C@H](CCCNC(=N)N)NC(=O)[C@@H](N)C(C)C)C(C)C)C(=O)NCCCC[C@H](NC(=O)[C@H](CCCCNC(=O)[C@H](CCCNC(=N)N)NC(=O)[C@H](CCCCN)NC(=O)[C@H](CCCNC(=N)N)NC(=O)[C@@H](NC(=O)[C@H](CCCNC(=N)N)NC(=O)CNC(=O)[C@H](CCCNC(=N)N)NC(=O)[C@@H](N)C(C)C)C(C)C)NC(=O)[C@H](CCCNC(=N)N)NC(=O)[C@H](CCCCN)NC(=O)[C@H](CCCNC(=N)N)NC(=O)[C@@H](NC(=O)[C@H](CCCNC(=N)N)NC(=O)CNC(=O)[C@H](CCCNC(=N)N)NC(=O)[C@@H](N)C(C)C)C(C)C)C(=O)N[C@@H](CCCCN)C(=O)O)C(C)C [Sc_B4010] (I: H-VRGRVRKRKKK-OH / II: H-VRGRVRKRK / III: H-VRGRVRKR / IV: H-VRGRVRKR; amide I:9-IV:C, I:10-II:C, II:9-III:C; N-terminus and C-terminus assumed)
calcein release [4]: decreased calcein release | calcein release ([4]; listed as scrambled peptide): about 41%

Structure (SMILES): CN(C/C=C/C#CC(C)(C)C)Cc1cccc2ccccc12 [Terbinafine]
Activity (fungi): Broad spectrum | Solubility [2]: 0.00074 mg/L (≈ 2.54e-06 mM) | logP [3]: 5.9
